Here are results for 5 compounds from patent EP1736154A1 (priority 2005, dated 2006).

The test system of one experiment is SMN2 minigene, exon 7. Format: cell-based.
In another experiment the test system is tau exon 10 minigene. The experiment is classed as cell-based, human.
The subject of the next experiment is SMN protein. The experiment is described as follows: SMN protein expression in SMA patient fibroblasts (Western blot with anti-SMN antibody). On the technique in general: A western blot detects proteins with antibodies after separation by electrophoresis.

Starred links: 1 amine or outer side, 2 acyl side, 3 side chain; linkers in the order of their positions; H or OH if unused. Positions of bridges follow the written chain, without caps; N, C: chain ends. Non-standard residues stand in square brackets, D forms with d. Residues, ends and D or L forms follow the SMILES beside them. Adda = CO[C@@H](Cc1ccccc1)[C@@H](C)/C=C(C)/C=C/[C@H](N[*:1])[C@H](C)C(=O)[*:2]; dAsp(3S-Me) = C[C@H](C(=O)[*:3])[C@@H](N[*:1])C(=O)[*:2]; d(γGlu) = O=C(O)[C@@H](CCC(=O)[*:2])N[*:1]; NMeDha = C=C(NC)C(=O)O

For the compound `COC[C@@H]([C@H](O)[C@H](O)C(=O)NCC[C@H](C)c1nc(/C=C/C[C@@H]2O[C@]3(C[C@@H](O)[C@@H]2C)O[C@H]([C@H](C[C@H](O)[C@H](C)[C@H](O)[C@H](C)/C=C(C)/C(C)=C/C=C/C(C)=C\C#N)OC)[C@H](OP(=O)(O)O)C3(C)C)co1)N(C)C` [Calyculin A], the “exon 7 inclusion of SMN2 MG” value with SMN2 minigene, exon 7 is given as “promote the exon 7 inclusion”.

Regarding `C[C@@]12C(=O)OC(=O)[C@]1(C)[C@H]1CC[C@@H]2O1` [Cantharidin], the “exon 7 inclusion of SMN2 MG” value in the experiment on SMN2 minigene, exon 7 is listed as “promote the exon 7 inclusion”.

For `CN(N=O)c1cc(O)ccc1O` [Dephostatin], the “exon 7 inclusion of SMN2 MG” value in the experiment with SMN2 minigene, exon 7 is “promote the exon 7 inclusion”.

For the compound `C=C1C(=O)N[C@H](C)C(=O)N[C@@H](CC(C)C)C(=O)N[C@@H](C(=O)O)[C@H](C)C(=O)N[C@@H](CCCNC(=N)N)C(=O)N[C@@H](/C=C/C(C)=C/[C@H](C)[C@H](Cc2ccccc2)OC)[C@H](C)C(=O)N[C@@H](C(=O)O)CCC(=O)N1C` [Microcystin ―LR, Microcystin-LR] (R[Adda][d(γGlu)][NMeDha][dA]L[dAsp(3S-Me)]-OH; lactam N-7), the “exon 7 inclusion of SMN2 MG” value in the experiment on SMN2 minigene, exon 7 is “promote the exon 7 inclusion”.

On to `CO[C@H]([C@H](O)CC(=O)[C@@H](C)[C@@H](O)CC[C@@H](C)[C@@H]1O[C@]2(CC[C@@H](C)[C@H](CC[C@H](C)C(C)=O)O2)CC[C@@H]1C)[C@H](OC(=O)C[C@@H](O)C1=C(C)C(=O)OC1=O)C(C)C` [Tautomycin], for which the “inclusion of tra2-beta1 dependent enhancers, tau exon 10 minigene” value with tau exon 10 minigene was “promotes inclusion of tra2-beta1 dependent enhancers”. In addition, the “SMN Protein formation in human fibroblasts” value in the experiment on SMN protein was “promotes SMN Protein formation”. Also, in the experiment with SMN2 minigene, exon 7, the “inclusion of tra2-beta1 dependent enhancers, SMN2-minigene” value was “promotes inclusion of tra2-beta1 dependent enhancers” and the “tra2-betal-dependent splicing enhancers (SMN2 MG splicing pattern)” value is “can be manipulated”.
